Entries after “also recorded” stand apart in the source; their conditions may differ. Where a name gives a salt, the structure may show the parent alone.
Tests used:
hippocampal precursors [1] = assay: Slice-sphere assay (hippocampal organotypic slices, then neurosphere culture); format: cell-based, rat; conditions: for neurosphere frequency: FIG. 8b, 1 μM; for effect on precursor numbers / frequency of neurosphere generation: 1 μM or 10 μM
Description: D-glucose (Sigma-Aldrich) was added to the medium to a final concentration of 5 mM. Four filters, each containing 6-7 hippocampal slices, were generated from a single animal. Plates were incubated at 37° C. in a humidified 5% CO2 incubator and the slices were cultured for 6 days. To assess the influence of specific compounds on hippocampal precursor proliferation in the slice culture, compounds were added to the complete medium at the doses described below. Two filters were treated with the compounds for each dose per experiment. On every alternate day half the medium was removed and replaced with fresh medium containing the compounds. Slices were treated with serotonin at 10 μM and 100 μM and norepinephrine at 1 μM, 10 μM and 100 μM. […] Propranolol (10 μM) was used to block β adrenergic receptors in the slices. On the 6th day of culture, the hippocampal slices from each treatment group were pooled and the tissue was minced using a scalpel blade. Minced tissue was then treated with 0.1% trypsin-EDTA (Invitrogen) for 5 minutes at 37° C. […] A single cell suspension was achieved by gentle trituration. The total number of viable cells in an aliquot was counted on a haemocytometer based on the exclusion of 0.08% trypan blue (Sigma-Aldrich). The cells were then cultured in complete neurosphere medium containing EGF and bFGF. […] For each experiment there were 20 wells plated for each of the doses per treatment group. The plates were incubated at 37° C. in a humidified 5% CO2 incubator.

[2] = test system: adult hippocampal precursors; assay: Adult hippocampal neurosphere culture; format: cell-based, mouse; conditions: for neurosphere numbers with antagonist alone / increase in neurosphere numbers compared to the control: no norepinephrine, antagonist alone; for increase in neurosphere numbers compared to the control / effect of antagonist on norepinephrine-stimulated increase in neurosphere numbers: yohimbine 1 μM, ICI118,551 10 nM; for effect of antagonist on norepinephrine-stimulated increase in neurosphere numbers: in presence of norepinephrine, prazosin 100 nM, propranolol 1 μM, CGP20712 10 nM, SR59230A 10 nM
Description: Animals were treated in accordance with the Australian Code of Practice for the Care and Use of Animals for Scientific Purposes and ethics approval was obtained for all experiments from the Animal Ethics Committee of the University of Queensland. 8-10 week old male C57/B16 mice were killed by cervical dislocation and their brains removed. Brains were bisected along the midline in the sagittal plane. The hippocampi were isolated from the overlying cortex and minced using a scalpel blade. Minced tissue was digested in 0.1% papain (Invitrogen, Melbourne, Australia) for 20 minutes at 37° C., after which an excess of NeuroCult NSC basal medium (Stem Cell Technologies, Vancouver, Canada) was added to halt the digestion. Tissue was then centrifuged at 100 rcf for 5 minutes, the resulting pellet was resuspended in 1 ml of complete neurosphere medium, and a single cell suspension was achieved by gentle trituration. The cells were filtered through a 40 μm cell sieve (BD Biosciences, Sydney, Australia) and resuspended in NeuroCult NSC basal medium containing NeuroCult proliferation supplements (Stem Cell Technologies), 2% bovine serum albumin (Invitrogen) and 2 μg/ml heparin (Sigma-Aldrich, Sydney, Australia). The growth factors added were 20 ng/ml EGF (receptor grade, BD Biosciences) and 10 ng/ml bFGF (recombinant bovine, Roche, Basel, Switzerland). The cells were then plated in a 96-well plate and cultured in complete neurosphere medium containing EGF and bFGF, in the presence or absence of 5-hydroxytryptamine hydrochloride (serotonin; 100 nM, 1 μM, 10 μM), L-(−)-noradrenaline (+)-bitartrate salt monohydrate (norepinephrine; 100 nM, 1 μM, 10 μM) or KCl (15 mM). The adrenergic receptor antagonists used were prazosin (100 nM), yohimbine (1 μM), propranolol (1 μM), CGP20712 (10 nM), ICI118,551 (10 nM) and SR59230A (10 nM). BRL37344 was used as a selective β3 adrenergic receptor agonist. All the compounds were purchased from Sigma-Aldrich. The number of primary neurospheres was counted on day 10-13 and expressed as a percentage relative to the control.

[3] = test system: norepinephrine-stimulated large neurospheres; assay: Hippocampal neurosphere passaging (self-renewal); format: cell-based, mouse; conditions: 10 μM; 15 out of 21
Excerpt: To ascertain whether the norepinephrine-stimulated large neurospheres indeed reflected the activation of stem cells, individual neurospheres were selected and subjected to long-term passaging to assess their self-renewal capacity.
As a first step primary, neurospheres were individually dissociated and replated into fresh media not containing norepinephrine. Primary neurospheres from the unstimulated hippocampus were also passaged as single spheres. Hippocampal neurosphere cultures were initiated by removing 150 μl of the medium from wells containing single neurospheres, treating with 100 μl 0.1% trypsin-EDTA for 2 minutes at room temperature, followed by washing with 100 μl trypsin inhibitor in HEM. The neurospheres were mechanically triturated until dissociated and replated in 24 well plates in 2 ml of complete medium. Neurospheres were passaged every 10 days by centrifuging the neurospheres, removing the medium and incubating in 1 ml of 0.1% trypsin-EDTA for 2 minutes at room temperature. After the addition of an equal volume of trypsin inhibitor, the neurospheres were centrifuged at 100 rcf for 5 minutes and the supernatant removed. Cells were mechanically triturated in 500 μl of complete medium and trypan blue staining was used to evaluate the number of cells, both viable and total number, on a haemocytometer. […]

hippocampal neurospheres = assay: Immunocytochemistry of neurospheres (multipotentiality); format: cell-based, mouse
Description: We next determined the multipotentiality of the cells present within the neurospheres generated in the presence and absence of norepinephrine (FIG. 2b, c, d).
Control or norepinephrine-stimulated neurospheres were plated onto poly-ornithine-coated cover slips or poly-D-lysine-coated BioCoat eight-well culture slides (BD Biosciences) in serum-free basal medium without any mitogens. The neurospheres were allowed to flatten and adhere for 4-6 days in a humidified, 5% CO2 incubator. They were then fixed with 4% paraformaldehyde in 0.1M phosphate buffered saline (PBS) at 4° C. for 40 min, and immunocytochemistry was performed as described previously 38 using antibodies to the neuronal marker βIII tubulin (1:2000; Promega, Madison, Wis.), the astrocytic marker GFAP (1:500; DakoCytomation, Carpinteria, Calif.) and the oligodendrocyte marker MBP (1:500; Millipore, Sydney, Australia). 4′,6′-diamidino-2-phenylindole (DAPI; 1:5000; Sigma-Aldrich) was used as a nuclear stain. Slides were mounted using fluoromount (DakoCytomation) and viewed on a Zeiss-Axio Imager microscope. Images were captured using a digital camera linked to a computer using Zeiss software.

Hes5-GFP-positive cells = assay: Neurosphere generation from FACS-sorted Hes5-GFP-positive cells; format: cell-based, mouse
Description: Brains from 8-12 weeks old male Hes5-GFP mice were removed and hippocampi were isolated as described earlier. A live cell suspension was prepared from the hippocampus using 0.1% papain, and the dead cells were labelled with propidium iodide (1 μg/ml). GFP-positive and -negative cells were then purified by fluorescence-activated cell sorting (FACS). Cells were sorted on a FACS Vantage (Becton Dickinson, Melbourne, Australia) with DIVA software. The […] was set relative to the basal fluorescence levels obtained from GFP-negative wild-type littermate controls and a conservative approach was used in selecting only high GFP-expressing cells. The cells were collected in basal medium and plated into 96-well tissue culture plates in medium containing EGF+bFGF with or without norepinephrine (10 μM).

[4] = test system: stem cells in the hippocampus; assay: i.p. treatment for 7 days, hippocampal neurospheres; format: in vivo, mouse; conditions: 10 mg/kg i.p. for 7 days
Description: (§1) Neurospheres with a diameter greater than […] may be derived from BRL37344 treated mice.

hippocampal precursors [5] = assay: Intrahippocampal infusion for 7 days, hippocampal neurospheres; format: in vivo, mouse; conditions: 10 μM intrahippocampal infusion for 7 days
Description: as §1

CNCCCC12CCC(c3ccccc31)c1ccccc12 [maprotiline]
neurosphere frequency (hippocampal precursors [1]): significant increase | neurosphere frequency as percentage of the control (hippocampal precursors [1]; slices treated at 1 μM): 258.5±25.5%

[Cl-].[K+] [KCl]
increase in neurosphere numbers ([2]; KCl 15 mM alone): 2 fold

Cl.NCCc1c[nH]c2ccc(O)cc12 [serotonin, 5-hydroxytryptamine hydrochloride]
neurosphere numbers compared to the control ([2]; 100 nM, 1 μM or 10 μM, EGF and bFGF present): no change | effect on frequency of neurosphere formation (hippocampal precursors [1]; 10 μM or 100 μM): no effect | neurosphere frequency as percentage of the control (hippocampal precursors [1]; slices treated at 10 μM): 90.07±5.4% | neurosphere frequency as percentage of the control (hippocampal precursors [1]; slices treated at 100 μM): 102.81±31.7%

Cc1ccc(OCC(O)C(C)NC(C)C)c2c1CCC2 (stereo not shown) [ICI118,551]
neurosphere numbers with antagonist alone [2]: significant increase | increase in neurosphere numbers compared to the control [2]: about 34%

COC(=O)[C@@H]1[C@H]2C[C@H]3c4[nH]c5ccccc5c4CCN3C[C@@H]2CC[C@@H]1O [yohimbine]
neurosphere numbers with antagonist alone [2]: slight but significant increase | increase in neurosphere numbers compared to the control [2]: 40% | effect of antagonist on norepinephrine-stimulated increase in neurosphere numbers [2]: failed to inhibit

NC[C@H](O)c1ccc(O)c(O)c1 [norepinephrine, L-(−)-noradrenaline (+)-bitartrate salt monohydrate]
neurosphere numbers compared to the control ([2]; 100 nM and 1 μM): significant increase | size of neurospheres ([2]; 10 μM): larger than the control neurospheres | very large neurospheres generated ([2]; norepinephrine with or without SR59230A 10 nM): 12±2.08 neurospheres | proportion of stimulated large neurospheres (>200 μm) that could be passaged over 10 times [3]: 71.4% | neurons per stimulated large neurosphere (hippocampal neurospheres; all large neurospheres examined, n=9): > 50 neurons | neurospheres containing MBP-positive oligodendrocytes (hippocampal neurospheres; stimulated neurospheres): One third | neurospheres containing βIII tubulin-positive neurons (hippocampal neurospheres; stimulated neurospheres examined): 62 out of 82 | very large neurospheres (>200 μm in diameter) (Hes5-GFP-positive cells; 10 μM, GFP-positive population): 7.3±0.8 neurospheres per hippocampus | increase in neurosphere numbers (Hes5-GFP-positive cells; Hes5-GFP-positive cells plated at clonal density): 215.4±23.5% | number of neurospheres from purified Hes5-GFP-positive precursor population (Hes5-GFP-positive cells; n=2 experiments, SR59230A 10 nM): 45.5±2.5 neurospheres | increase in neurosphere frequency / precursor activity (hippocampal precursors [1]; slices treated at 100 μM): 3.5 fold

CC(Cc1ccc(OCC(=O)[O-])cc1)NCC(O)c1cccc(Cl)c1.[Na+] (stereo not shown) [BRL37344]
neurosphere numbers compared to norepinephrine treatment ([2]; 1 μM and 10 μM, comparison 10 μM norepinephrine): increase in neurosphere numbers similar to that observed in the presence of 10 μM norepinephrine | large neurospheres obtained [4]: increase in, large neurospheres; also recorded: increase in large neurospheres | activation of stem cells in the hippocampus ([4]; 8 weeks old C57/B16 mice, n=7): significant activation of stem cells in the hippocampus | activation of hippocampal precursors (hippocampal precursors [5]): activation of hippocampal precursors | number of neurospheres with a diameter greater than 100 μM (hippocampal precursors [5]): much greater | total number of neurospheres derived from treated mice (hippocampal precursors [5]): greater than when saline is infused

CCc1ccccc1OC[C@@H](O)CN[C@H]1CCCc2ccccc21.O=C(O)C(=O)O [SR59230A, 3-(2-ethylphenoxy)-1([1s]-1,2,3,4-tetrahydronaphth-1-ylamino)-2S-propanol oxalate]
effect of antagonist on norepinephrine-stimulated increase in neurosphere numbers [2]: completely blocked; also recorded: completely inhibited

Cn1cc(C(F)(F)F)nc1-c1ccc(OCC(O)CNCCOc2ccc(O)c(C(N)=O)c2)cc1 (stereo not shown) [CGP20712, 2-hydroxy-5-(2-[{2-hydroxy-3-(4-[1-methyl-4-trifluoromethyl-2-imidazolyl]phenoxy)-propyl}amino]ethoxy)benzamide]
effect of antagonist on norepinephrine-stimulated increase in neurosphere numbers [2]: no such effect

CN(C)CCCC1(c2ccc(F)cc2)OCc2cc(C#N)ccc21 (stereo not shown) [citalopram]
neurosphere frequency as percentage of the control (hippocampal precursors [1]; slices treated at 10 μM): 113.8±9.9% | neurosphere frequency as percentage of the control (hippocampal precursors [1]; slices treated at 100 μM): 103.8±3.8%

CNCCC(Oc1ccc(C(F)(F)F)cc1)c1ccccc1 (stereo not shown) [fluoxetine]
effect on precursor numbers / frequency of neurosphere generation (hippocampal precursors [1]): no significant change | effect on precursor numbers / frequency of neurosphere generation (hippocampal precursors [1]; listed as Fluoxetine): no effect

COc1cc2nc(N3CCN(C(=O)c4ccco4)CC3)nc(N)c2cc1OC [prazosin]
effect of antagonist on norepinephrine-stimulated increase in neurosphere numbers [2]: failed to inhibit

CC(C)NCC(O)COc1cccc2ccccc12 (stereo not shown) [propranolol]
neurosphere numbers with antagonist alone [2]: no toxic effect | effect of antagonist on norepinephrine-stimulated increase in neurosphere numbers [2]: reduced the norepinephrine-mediated response back to control levels; also recorded: completely inhibited | effect on norepinephrine-mediated increase in precursor activity (hippocampal precursors [1]; propranolol 10 μM in presence of norepinephrine): completely inhibit; also recorded: abolished | effect on reboxetine-mediated increase in precursor activity (hippocampal precursors [1]; propranolol 10 μM in presence of reboxetine): completely inhibit; also recorded: abolished

CNCC[C@@H](Oc1ccccc1C)c1ccccc1 [atomoxetine]
neurosphere frequency (hippocampal precursors [1]): significant increase | neurosphere frequency as percentage of the control (hippocampal precursors [1]; slices treated at 1 μM): 147.0±15.0%

CCOc1ccccc1OC(c1ccccc1)C1CNCCO1 (stereo not shown) [reboxetine]
frequency of neurosphere formation (hippocampal precursors [1]; 10 μM and 100 μM): significantly enhanced | neurosphere frequency as percentage of the control (hippocampal precursors [1]; slices treated at 1 μM): 104.5±9.6% | increase in frequency of neurosphere formation (hippocampal precursors [1]; slices treated at 10 μM): 40% | neurosphere frequency as percentage of the control (hippocampal precursors [1]; slices treated at 100 μM): 265.0±11.7%
